Test results taken from US20220322673A1, “Novel Agrochemical Combinations” (UPL LIMITED, priority 2019, published 2022).
Like-named read-outs stand apart in the source and are kept apart here.

Assays:
[1] = test system: Okra Jassids (Amrasca bigutulla bigutulla); type: in vivo; details: for Percent control (%) of Okra Jassids, Nymphs + Adults, A01: A01 = 1 day after first spray; for Percent control (%) of Okra Jassids, Nymphs + Adults, A10: A10 (after 1st spray); for Percent control (%) of Okra Jassids, Nymphs + Adults, B03: B03 = 3 days after 2nd spray; for Percent control (%) of Okra Jassids, Nymphs + Adults, B07: B07 (after 2nd spray); for Percent control (%) of Okra Jassids, Nymphs + Adults, B10: B10 (after 2nd spray); for Percent control (%) of Okra Jassids, Nymphs + Adults, B14: B14 (after 2nd spray); for Percent control (%) of Okra Jassids, Nymphs + Adults, C03: C03 = 3 days after third spray; for Percent control (%) of Okra Jassids, Nymphs + Adults, C10: C10 (after third spray)
Excerpt: (§1) In this evaluation, feeding damage & insect population on Okra Leaves before and after sprays is averaged and analyzed for the test of significance. Application method: Three applications (application A, B and C) within an interval of 14 days.

[2] = test system: Okra Aphids (Aphis gossypii); type: in vivo; details: for Percent control (%) of Okra Aphids, Nymphs + Adults, A01: A01 = 1 day after first spray; for Percent control (%) of Okra Aphids, Nymphs + Adults, B03: B03 = 3 days after 2nd spray; for Percent control (%) of Okra Aphids, Nymphs + Adults, B07: B07 (after 2nd spray); for Percent control (%) of Okra Aphids, Nymphs + Adults, B10: B10 (after 2nd spray); for Percent control (%) of Okra Aphids, Nymphs + Adults, C03: C03 = 3 days after third spray; for Percent control (%) of Okra Aphids, Nymphs + Adults, C10: C10 (after third spray)
Excerpt: as §1

[3] = 25% reduced dose rate, gm a.i./ha: OSA 25, Flonicamid 75, Acephate+Imidacloprid 390, Flonicamid+Fipronil 75+37.5, Imidacloprid 18.3, Acetamiprid 11.2
[4] = doses gm a.i./ha: OSA 25, Flonicamid 100, Acephate+Imidacloprid 520, Flonicamid+Fipronil 100+50, Imidacloprid 24.5, Acetamiprid 15
[5] = reduced insecticide dose, gm a.i./ha: OSA 25, Flonicamid (Ulala) 75, Acephate+Imidacloprid 390, Flonicamid+Fipronil 75+37.5, Imidacloprid 18.3, Acetamiprid 11.2

O=[N+]([O-])NC1=NCCN1Cc1ccc(Cl)nc1 [Imidacloprid]
Percent control (%) of Okra Jassids, Nymphs + Adults, A01 [1, 3]: 56% | Percent control (%) of Okra Jassids, Nymphs + Adults, A01 [1, 4]: 59.9% | Percent control (%) of Okra Jassids, Nymphs + Adults, A10 [1, 3]: 59.1% | Percent control (%) of Okra Jassids, Nymphs + Adults, A10 [1, 4]: 64.6% | Percent control (%) of Okra Jassids, Nymphs + Adults, B03 [1, 3]: 61.5% | Percent control (%) of Okra Jassids, Nymphs + Adults, B03 [1, 4]: 68.5% | Percent control (%) of Okra Jassids, Nymphs + Adults, B07 [1, 3]: 62.5% | Percent control (%) of Okra Jassids, Nymphs + Adults, B07 [1, 4]: 71.7% | Percent control (%) of Okra Jassids, Nymphs + Adults, B10 [1, 3]: 63.5% | Percent control (%) of Okra Jassids, Nymphs + Adults, B10 [1, 4]: 70.5% | Percent control (%) of Okra Jassids, Nymphs + Adults, B14 [1, 3]: 62.4% | Percent control (%) of Okra Jassids, Nymphs + Adults, B14 [1, 4]: 66.2% | Percent control (%) of Okra Jassids, Nymphs + Adults, C03 [1, 3]: 64.6% | Percent control (%) of Okra Jassids, Nymphs + Adults, C03 [1, 4]: 68.0% | Percent control (%) of Okra Jassids, Nymphs + Adults, C10 [1, 3]: 66.1% | Percent control (%) of Okra Jassids, Nymphs + Adults, C10 [1, 4]: 73.0% | Percent control (%) of Okra Aphids, Nymphs + Adults, A01 [2, 4]: 66.9% | Percent control (%) of Okra Aphids, Nymphs + Adults, A01 [2, 5]: 62.7% | Percent control (%) of Okra Aphids, Nymphs + Adults, A10 ([2]; A10 (after 1st spray), doses gm a.i./ha: OSA 25, Flonicamid 100, Acephate+Imidacloprid 520, Flonicamid+Fipronil 100+50, Imidacloprid 24.5, Acetamiprid 15): 82% | Percent control (%) of Okra Aphids, Nymphs + Adults, A14 ([2]; A14 = 14 days after 1st spray, reduced insecticide dose, gm a.i./ha: OSA 25, Flonicamid (Ulala) 75, Acephate+Imidacloprid 390, Flonicamid+Fipronil 75+37.5, Imidacloprid 18.3, Acetamiprid 11.2): 64.3% | Percent control (%) of Okra Aphids, Nymphs + Adults, B03 [2, 4]: 80.7% | Percent control (%) of Okra Aphids, Nymphs + Adults, B03 [2, 5]: 74.4% | Percent control (%) of Okra Aphids, Nymphs + Adults, B07 [2, 4]: 82.7% | Percent control (%) of Okra Aphids, Nymphs + Adults, B07 [2, 5]: 77.2% | Percent control (%) of Okra Aphids, Nymphs + Adults, B10 [2, 4]: 82.2% | Percent control (%) of Okra Aphids, Nymphs + Adults, B10 [2, 5]: 79.1% | Percent control (%) of Okra Aphids, Nymphs + Adults, C03 [2, 4]: 81.3% | Percent control (%) of Okra Aphids, Nymphs + Adults, C03 [2, 5]: 75.4% | Percent control (%) of Okra Aphids, Nymphs + Adults, C10 [2, 4]: 82.6% | Percent control (%) of Okra Aphids, Nymphs + Adults, C10 [2, 5]: 78%
